Measured values taken from patent US4267189A, “Method of use and composition for 1,3-dihydro-3-(2-hydroxy-2-methylpropyl)-2H-isoindol-1-one” (American Home Products Corporation, priority 1979, dated 1981).

Columns and labels:
Gastric Acid Secretion [1] = test: Basal gastric acid secretion in the Shay (pylorus-ligated) rat; assay type: in vivo, rat (female Sprague Dawley); conditions: for Gastric Acid Output: mean ± S.E.; for ED50: Rattus norvegicus, gastric acid secretion; for basal gastric acid secretion (in words): rat
Protocol: Female Sprague Dawley rats (Canadian Breeding Laboratories; 160-180 g) were fasted for 48 hours before pyloric ligation. After the first 24 hours of fasting the animals were given access to 8% sucrose in 0.2% sodium chloride for 8 hours. Water was permitted ad libitum except during the 8 hour access to sucrose and after the drug treatment. The compounds were suspended in water with the aid of one drop of Tween 80 per 7 ml for oral or intraperitoneal administration. The pylorus was ligated under ether anesthesia and the sutured incision was covered with flexible collodion to prevent the animals from ingesting adhering blood. The stomachs were lavaged with 0.9% sodium chloride until the return solution was clear. Four hours after pyloric ligation, the animals were killed with diethyl ether and the gastric contents were collected in centrifuge tubes. The amount of acid in the centrifuged gastric juice was determined by titration against 0.1 N sodium hydroxide in a direct reading pH meter of pH 7.0.
Student's t test was used in the evaluation of the data. The ED50 's were obtained graphically by plotting the percent inhibition of gastric acid secretion versus the logarithm of the dose of the compound.

[2] = test system: Indomethacin-Induced Ulcer Formation; test: Indomethacin-induced ulcer formation; assay type: in vivo, rat (female albino Sprague-Dawley); conditions: for Ulcers Formed: mean ± S.E.; for ED50: Rattus norvegicus, indomethacin-induced ulcers, oral, doses in mg/kg
Protocol: The method utilized for the production and evaluation of indomethacin-induced ulcer formation was essentially as described by Y. H. Lee et al., Arch. Int. Pharmacodyn. […] Indomethacin (20 mg/kg, i.p.) was given, the animals sacrificed by cervical dislocation 5 hr later and the number of ulcers present in the glandular portion of the stomach determined. The test compound was administered orally (0.2 ml) 1 hr before the indomethacin. The vehicle employed for the administrations was water containing Tween 80 (1 drop per 7 ml). There were 12-32 animals per group.

[3] = test system: Cold-Restraint-Induced Ulcer Formation; test: Cold-restraint-induced ulcer formation; assay type: in vivo, rat (male albino Sprague-Dawley); conditions: for Ulcers Formed: mean ± S.E.; for ED50: Rattus norvegicus, cold-restraint ulcers, oral, doses in mg/kg
Source text: Int. Pharmacodyn. […] Exp. Biol. Med., 113, 998 (1963) as modified by E. C. Senay and R. J. Levine Proc. Soc. Exp. Biol. Med., 124, 1221 (1967) when administered orally or parenterally (see Examples 3 and 4).
To assess the effects of the test compound on the development of cold-restraint-induced gastric lesions, the method of D. A. Brodie and L. S. Valitski Proc. Soc. Exp. Biol. Med., 113, 998 (1963) as modified by E. C. Senay and R. J. Levine Proc. Soc. Exp. Biol. Med., 124, 1221 (1967) was used. Food was withheld from male albino rats (165-175 g, Sprague-Dawley, Canadian Breeding Laboratories) for 24 hr but water was freely available. The test compound was administered orally (0.2 ml) to the animals (8-24 per group) 30 min before placing the animals into restrainers, the restrainer was made of plexiglass and restricted the movement of the rat to a minimum. The vehicle employed was as described above. The restrainers were placed in a cold environment (4°-7° C.) for 2 hr. The animals were sacrificed by cervical dislocation, the stomachs removed and the number of ulcers in the glandular portion of the stomach determined.

[4] = test system: Oxotremorine-Induced Effects; test: Anticholinergic activity: antagonism of oxotremorine-induced effects (temperature, tremor, salivation, lacrimation); assay type: in vivo, mice; conditions: for Lacrimation (L) score / Salivation (S) score / Tremor (T) score: 2=strong, 1=weak, 0=none
Protocol: Anticholinergic activity was examined in vivo by determining the ability of the compound to antagonize oxotremorine-induced effects according to the method described by P. S. J. Spencer, Life Sci., 5, 1015 (1965). […] Rectal temperature was measured with a YSI telethermometer 402 physiological probe before administration of test compounds and oxotremorine and at 15 and 30 min after oxotremorine. At the same time the degree of tremor, salivation and lacrimation was scored as follows: 2=strong; 1=weak; 0=none.

gastric acid secretion [5] = conditions: Lee et al.; cited from earlier work
[6] = 25 mg/kg i.p., 15 min after oxotremorine
[7] = 25 mg/kg i.p., 30 min after oxotremorine
[8] = 100 mg/kg i.p., 15 min after oxotremorine
[9] = 100 mg/kg i.p., 30 min after oxotremorine
[10] = 2 mg/kg i.p., 15 min after oxotremorine
[11] = 2 mg/kg i.p., 30 min after oxotremorine
[12] = 5 mg/kg i.p., 15 min after oxotremorine
[13] = 5 mg/kg i.p., 30 min after oxotremorine

CC(C)(O)CC1NC(=O)c2ccccc21 (centres unmarked) [Isoindol-1-one, 1,3-dihydro-3-(2-hydroxy-2-methylpropyl)-2H-isoindol-1-one]
Gastric Acid Output (% Inhibition) (Gastric Acid Secretion [1]; 12 mg/kg i.p.): 18 % Inhibition | Gastric Acid Output (Gastric Acid Secretion [1]; 12 mg/kg i.p.): 448 ± 59 μEg/4 hr | Gastric Acid Output (% Inhibition) (Gastric Acid Secretion [1]; 25 mg/kg i.p.): 49 % Inhibition | Gastric Acid Output (Gastric Acid Secretion [1]; 25 mg/kg i.p.): 275 ± 57 μEg/4 hr | Gastric Acid Output (% Inhibition) (Gastric Acid Secretion [1]; 25 mg/kg p.o.): 48 % Inhibition | Gastric Acid Output (Gastric Acid Secretion [1]; 25 mg/kg p.o.): 226 ± 48 μEq/4 hr | Gastric Acid Output (% Inhibition) (Gastric Acid Secretion [1]; 50 mg/kg i.p.): 90 % Inhibition | Gastric Acid Output (Gastric Acid Secretion [1]; 50 mg/kg i.p.): 56 ± 12 μEg/4 hr | Gastric Acid Output (% Inhibition) (Gastric Acid Secretion [1]; 50 mg/kg p.o.): 65 % Inhibition | Gastric Acid Output (Gastric Acid Secretion [1]; 50 mg/kg p.o.): 154 ± 33 μEq/4 hr | Gastric Acid Output (% Inhibition) (Gastric Acid Secretion [1]; 100 mg/kg p.o.): 84 % Inhibition | Gastric Acid Output (Gastric Acid Secretion [1]; 100 mg/kg p.o.): 71 ± 19 μEq/4 hr | ED50 (Gastric Acid Secretion [1]; ip, intraperitoneal administration): 25 mg/kg | ED50 (Gastric Acid Secretion [1]; oral administration): 28 mg/kg | basal gastric acid secretion (in words) (Gastric Acid Secretion [1]; listed as 1,3-Dihydro-3-(2-hydroxy-2-methylpropyl)-2H-isoindol-1-one): inhibiting basal gastric acid secretion in the rat | basal gastric acid secretion (in words) (Gastric Acid Secretion [1]; listed as 1,3-dihydro-3-(2-hydroxy-2-methylpropyl)-2H-isoindol-1-one): can inhibit gastric acid secretion | Ulcers Formed (% Inhibition) ([2]; 25 mg/kg p.o.): 50 % Inhibition | Ulcers Formed ([2]; 25 mg/kg p.o.): 4.9 ± 1.2 | Ulcers Formed (% Inhibition) ([2]; 50 mg/kg p.o.): 75 % Inhibition | Ulcers Formed ([2]; 50 mg/kg p.o.): 2.4 ± 0.7 | Ulcers Formed (% Inhibition) ([2]; 100 mg/kg p.o.): 82 % Inhibition | Ulcers Formed ([2]; 100 mg/kg p.o.): 1.8 ± 0.6 | ED50 [2]: 22 mg/kg | indomethacin-induced ulcer formation (in words) ([2]; rat, orally or parenterally): inhibiting indomethacin-induced ulcer formation in the rat | Ulcers Formed (% Inhibition) ([3]; 50 mg/kg p.o.): 40 % Inhibition | Ulcers Formed ([3]; 50 mg/kg p.o.): 3.9 ± 1.2 | Ulcers Formed (% Inhibition) ([3]; 100 mg/kg p.o.): 55 % Inhibition | Ulcers Formed ([3]; 100 mg/kg p.o.): 2.9 ± 0.5 | Ulcers Formed (% Inhibition) ([3]; 200 mg/kg p.o.): 69 % Inhibition | Ulcers Formed ([3]; 200 mg/kg p.o.): 2.0 ± 0.8 | ED50 [3]: 80 mg/kg | cold-restraint-induced ulcer formation (in words) ([3]; rat, orally or parenterally): cold-resistant-induced ulcer formation in the rat | Temperature Before Oxotremorine ([4]; 25 mg/kg i.p.): 36.7 ± 0.2 °C | Temperature after Oxotremorine ([4]; 25 mg/kg i.p., 15 min): 31.4 ± 0.2 °C | Lacrimation (L) score [4, 6]: 2.0 | Salivation (S) score [4, 6]: 2.0 | Tremor (T) score [4, 6]: 2.0 | Temperature after Oxotremorine ([4]; 25 mg/kg i.p., 30 min): 29.2 ± 0.2 °C | Lacrimation (L) score [4, 7]: 2.0 | Salivation (S) score [4, 7]: 2.0 | Tremor (T) score [4, 7]: 2.0 | Temperature Before Oxotremorine ([4]; 100 mg/kg i.p.): 32.8 ± 0.2 °C | Temperature after Oxotremorine ([4]; 100 mg/kg i.p., 15 min): 31.2 ± 0.1 °C | Lacrimation (L) score [4, 8]: 0.7 | Salivation (S) score [4, 8]: 2.0 | Tremor (T) score [4, 8]: 2.0 | Temperature after Oxotremorine ([4]; 100 mg/kg i.p., 30 min): 30.5 ± 0.2 °C | Lacrimation (L) score [4, 9]: 1.0 | Salivation (S) score [4, 9]: 2.0 | Tremor (T) score [4, 9]: 2.0 | anticholinergic activity (in words) ([4]; see Example 5): does not exhibit appreciable anticholineric activity

CN1[C@@H]2CC[C@H]1C[C@@H](OC(=O)C(CO)c1ccccc1)C2 (some centres unmarked) [Atropine, reference compound]
Ulcers Formed (% Inhibition) ([2]; 1 mg/kg p.o.): 47 % Inhibition | Ulcers Formed ([2]; 1 mg/kg p.o.): 5.2 ± 1.5 | Ulcers Formed (% Inhibition) ([2]; 2 mg/kg p.o.): 85 % Inhibition | Ulcers Formed ([2]; 2 mg/kg p.o.): 1.5 ± 0.8 | ED50 [2]: 1.1 mg/kg | Temperature Before Oxotremorine ([4]; 2 mg/kg i.p.): 37.6 ± 0.2 °C | Temperature after Oxotremorine ([4]; 2 mg/kg i.p., 15 min): 36.7 ± 0.4 °C | Lacrimation (L) score [4, 10]: 0 | Salivation (S) score [4, 10]: 0 | Tremor (T) score [4, 10]: 0 | Temperature after Oxotremorine ([4]; 2 mg/kg i.p., 30 min): 35.7 ± 0.4 °C | Lacrimation (L) score [4, 11]: 0 | Salivation (S) score [4, 11]: 0 | Tremor (T) score [4, 11]: 0 | Temperature Before Oxotremorine ([4]; 5 mg/kg i.p.): 37.2 ± 0.3 °C | Temperature after Oxotremorine ([4]; 5 mg/kg i.p., 15 min): 36.9 ± 0.2 °C | Lacrimation (L) score [4, 12]: 0 | Salivation (S) score [4, 12]: 0 | Tremor (T) score [4, 12]: 0.16 | Temperature after Oxotremorine ([4]; 5 mg/kg i.p., 30 min): 36.9 ± 0.3 °C | Lacrimation (L) score [4, 13]: 0.16 | Salivation (S) score [4, 13]: 0 | Tremor (T) score [4, 13]: 0

CN(C)CCCN1c2ccccc2CCc2ccccc21 [Imipramine, reference compound]
Ulcers Formed (% Inhibition) ([3]; 1.25 mg/kg p.o.): 37 % Inhibition | Ulcers Formed ([3]; 1.25 mg/kg p.o.): 4.1 ± 1.5 | Ulcers Formed (% Inhibition) ([3]; 2.5 mg/kg p.o.): 68 % Inhibition | Ulcers Formed ([3]; 2.5 mg/kg p.o.): 2.1 ± 0.8 | Ulcers Formed (% Inhibition) ([3]; 5 mg/kg p.o.): 81 % Inhibition | Ulcers Formed ([3]; 5 mg/kg p.o.): 1.2 ± 0.4 | ED50 [3]: 1.7 mg/kg

COc1ccc2c(c1)c(CC(=O)O)c(C)n2C(=O)c1ccc(Cl)cc1 [Indomethacin]
effect on gastric acid secretion (in words) (gastric acid secretion [5]): no effect on gastric acid secretion | ulcer formation (in words) (gastric acid secretion [5]): induces ulcer formation
